The term Ki denotes a measure of affinity in units of concentration, obtained from inhibition or displacement. Low values mean higher affinity, high ones lower affinity.

Each structure is given as a SMILES string.

The target of the test is T1, Gastrin/cholecystokinin type B receptor (Mus musculus, UniProt P56481).
T1 sequence (P56481 whole entry): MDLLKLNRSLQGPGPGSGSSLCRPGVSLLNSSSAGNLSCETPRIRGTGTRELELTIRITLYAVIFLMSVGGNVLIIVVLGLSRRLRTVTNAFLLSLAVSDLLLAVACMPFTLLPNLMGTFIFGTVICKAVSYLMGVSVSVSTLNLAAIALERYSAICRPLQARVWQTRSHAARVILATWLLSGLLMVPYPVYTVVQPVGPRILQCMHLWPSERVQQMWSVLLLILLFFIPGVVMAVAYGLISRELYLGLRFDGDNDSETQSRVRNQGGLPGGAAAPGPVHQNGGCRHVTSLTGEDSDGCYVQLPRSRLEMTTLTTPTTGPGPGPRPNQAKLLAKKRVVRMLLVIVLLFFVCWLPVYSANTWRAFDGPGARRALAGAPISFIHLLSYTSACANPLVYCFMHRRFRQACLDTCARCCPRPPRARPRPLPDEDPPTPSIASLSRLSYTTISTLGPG
As to the kind of experiment: Cholecystokinin type B receptor binding assay performed on homogenized cerebral cortex from male mouse. Type of test: tissue-based.
For the molecule `C[C@](Cc1c[nH]c2ccccc12)(NC(=O)OC1C2CC3CC(C2)CC1C3)C(=O)N[C@H](CO)Cc1ccccc1` (some centres not stated), the Ki was 6.03 nM.
Next, `C[C@@](Cc1c[nH]c2ccccc12)(NC(=O)OC1C2CC3CC(C2)CC1C3)C(=O)N[C@H](CNC(=O)CCC(=O)O)Cc1ccccc1` (some centres not stated): 166 nM; `O=C(O)CCC(=O)NC(CNC(=O)[C@@H](Cc1c[nH]c2ccccc12)NC(=O)OC1C2CC3CC(C2)CC1C3)c1ccccc1` (some centres not stated): 355 nM.
Then `O=C(O)CCC(=O)N[C@@H](CNC(=O)[C@H](Cc1c[nH]c2ccccc12)NC(=O)OC1C2CC3CC(C2)CC1C3)c1ccccc1` (some centres not stated), with 977 nM.
Then `CC1(C)[C@H]2CC[C@@]1(C)[C@@H](OC(=O)N[C@](C)(Cc1c[nH]c3ccccc13)C(=O)NC[C@H](NC(=O)CCC(=O)O)c1ccccc1)C2`, with 2.04 nM; and `O=C(O)C[C@@H](Cc1ccccc1)NC(=O)[C@H](Cc1c[nH]c2ccccc12)NC(=O)OC1C2CC3CC(C2)CC1C3` (some centres not stated), with 93.3 nM; and `CC1(C)C2CCC1(C)[C@@H](OC(=O)N[C@@H](Cc1c[nH]c3ccccc13)C(=O)NC[C@H](NC(=O)CCC(=O)O)c1ccccc1)C2` (some centres not stated), with 398 nM.
The molecule `C[C@@H]1CCCC[C@H]1OC(=O)NC(C)(Cc1c[nH]c2ccccc12)C(=O)NCCc1ccccc1` (some centres not stated) showed an inhibitory constant (Ki) of 135 nM.
Next, `C[C@@H]1CCCC[C@H]1OC(=O)N[C@](C)(Cc1c[nH]c2ccccc12)C(=O)N[C@H](CNC(=O)/C=C/C(=O)O)Cc1ccccc1`: 1.15 nM.
Then `O=C(O)C[C@@H](Cc1ccccc1)NC(=O)[C@@H](Cc1c[nH]c2ccccc12)NC(=O)OC1C2CC3CC(C2)CC1C3` (some centres not stated), with 138 nM.
Next, `CC1(C)C2CCC1(C)[C@@H](OC(=O)N[C@H](Cc1c[nH]c3ccccc13)C(=O)NC[C@H](NC(=O)/C=C/C(=O)O)c1ccccc1)C2` (some centres not stated): 81.3 nM.
In turn, `CC(Cc1c[nH]c2ccccc12)(NC(=O)O[C@H]1CC2CCC1(C)C2(C)C)C(=O)NCCc1ccccc1` (some centres not stated) had an inhibition constant (Ki) of 126 nM.
On to `C[C@](Cc1c[nH]c2ccccc12)(NC(=O)OC12CC3CC(CC(C3)C1)C2)C(=O)N[C@H](CO)Cc1ccccc1`, for which the Ki is 20.4 nM.
Next, `C[C@@H]1CCCC[C@H]1OC(=O)N[C@](C)(Cc1c[nH]c2ccccc12)C(=O)NC[C@H](NC(=O)CCC(=O)O)c1ccccc1`: 3.72 nM.
In turn, `CC1(C)C2CCC1(C)C(OC(=O)N[C@](C)(Cc1c[nH]c3ccccc13)C(=O)N[C@H](CO)Cc1ccccc1)C2` (some centres not stated) showed an inhibitory constant (Ki) of 15.5 nM. Compared with the last molecule, the Ki is about 4.2-fold higher.
`CC1(C)C2CCC1(C)[C@@H](OC(=O)N[C@H](Cc1c[nH]c3ccccc13)C(=O)NC[C@H](NC(=O)CCC(=O)O)c1ccccc1)C2` (some centres not stated) showed an inhibition constant Ki of 302 nM.
Next, `C[C@@H]1CCCC[C@H]1OC(=O)N[C@](C)(Cc1c[nH]c2ccccc12)C(=O)NC[C@H](NC(=O)/C=C/C(=O)O)c1ccccc1`: 3.89 nM; `C[C@](Cc1c[nH]c2ccccc12)(NC(=O)OC1C2CC3CC(C2)CC1C3)C(=O)NC[C@H](NC(=O)/C=C/C(=O)O)c1ccccc1` (some centres not stated): 0.513 nM.
Next, `CC1(C)C2CCC1(C)[C@@H](OC(=O)N[C@](C)(Cc1c[nH]c3ccccc13)C(=O)NC[C@H](NC(=O)/C=C/C(=O)O)c1ccccc1)C2` (some centres not stated): 2.19 nM.
Next, `C[C@](Cc1c[nH]c2ccccc12)(NC(=O)OC1C2CC3CC(C2)CC1C3)C(=O)N[C@H](CNC(=O)/C=C/C(=O)O)Cc1ccccc1` (some centres not stated): 0.708 nM.
Regarding `C[C@@H]1CCCC[C@H]1OC(=O)N[C@](C)(Cc1c[nH]c2ccccc12)C(=O)N[C@H](CNC(=O)CCC(=O)O)Cc1ccccc1`, the inhibition constant Ki is 12.3 nM.
With `C[C@](Cc1c[nH]c2ccccc12)(NC(=O)OC1C2CC3CC(C2)CC1C3)C(=O)N[C@H](CNC(=O)CCC(=O)O)Cc1ccccc1` (some centres not stated), the affinity, expressed as Ki, was 3.98 nM.
`CC(Cc1c[nH]c2ccccc12)(NC(=O)OC12CC3CC(CC(C3)C1)C2)C(=O)NCCc1ccccc1` (configuration not stated): the affinity, expressed as Ki, was 191 nM.
Next, `O=C(N[C@H](Cc1c[nH]c2ccccc12)C(=O)N[C@H](CO)Cc1ccccc1)OC1C2CC3CC(C2)CC1C3` (stereo in doubt; 9): 813 nM; `O=C(N[C@H](Cc1c[nH]c2ccccc12)C(=O)N[C@H](CO)Cc1ccccc1)OC1C2CC3CC(C2)CC1C3` (stereo in doubt; 10): 2090 nM; `C[C@@H]1CCCC[C@H]1OC(=O)N[C@](C)(Cc1c[nH]c2ccccc12)C(=O)N[C@H](CO)Cc1ccccc1` (stereo in doubt; 11): 15.1 nM.
Next, `C[C@@H]1CCCC[C@H]1OC(=O)N[C@](C)(Cc1c[nH]c2ccccc12)C(=O)N[C@H](CO)Cc1ccccc1` (stereo in doubt; 28): 8.91 nM.

For the origin of these results see ChEMBL document CHEMBL1125452, “Rationally designed "dipeptoid" analogues of CCK. A Free-Wilson/Fujita-Ban analysis of some alpha-methyltryptophan derivatives as CCK-B antagonists” (J Med Chem, 1992).
